Values of other authors in US8871945B2, “Process for preparation of rufinamide” (priority 2010, dated 2014).

How the values were obtained:
sodium channels [1] = settings: Rufinamide ≧1 μM; after a prolonged prepulse; cultured cortical neurons
sodium channels [2] = settings: cultured cortical neurons; read-out: EC50 for limiting sustained repetitive firing of sodium-dependent action potentials

EC50 (sodium channels [2]): 3.8 µM
Compound: NC(=O)c1cn(Cc2c(F)cccc2F)nn1 [Rufinamide, 1-(2,6-difluorobenzyl)-1H-1,2,3-triazole-4-carboxamide]
sodium channel recovery from inactivation (sodium channels [1]): significantly slowed
